Data on 9 compounds can be found in US6890885B2, “Herbicidal composition” (priority 2000, dated 2005).

Where “and” joins values, the source holds several entries; their conditions need not be identical. Equal entries are not always repeated.

Type in all cases: in vivo
The test system of series [1] is Monocotyledonous and dicotyledonous test plants. The experiment in a line: Pre-emergence test: herbicidal action (% action) of single active ingredients and mixtures, with expected action We according to Colby. The note with it: for herbicidal action (% action): evaluated after 36 days. An excerpt:
(§1) The herbicidal action to be expected We for a given combination of two herbicides can be calculated as follows (see COLBY, S. R., “Calculating synergistic and antagonistic response of herbicide combinations”, Weeds 15, pages 20-22,1967):
(§2) When the action actually observed is greater than the value to be expected We, there is a synergistic effect.
Experiment Description—Pre-emergence Test
Monocotyledonous and dicotyledonous test plants are sown in standard soil in plastics pots. Directly after sowing, the test substances are applied in aqueous suspension by spraying (500 liters of water/ha). The rates of application depend on the optimum doses ascertained under field conditions and greenhouse conditions. The test plants are then grown on in the greenhouse under optimum conditions. The tests are evaluated after 36 days (% action, 100%=plant has died, 0%=no phytotoxic action).
In the following Tables, evaluation is carried out after 14 days:
In the following Tables, evaluation is carried out after 31 days: […]

In series [2] the test system is test plants. The experiment in a line: Post-emergence test: herbicidal action (% action) of the herbicide on its own and as a mixture, with expected action We according to Colby.
From the text: A synergistic effect exists whenever the action of the active ingredient combination of compounds of formula 1 and 2.1 to 2.51 is greater than the sum of the actions of the active ingredients applied separately.
as §1
• X=percentage herbicidal action on treatment with the compound of formula I at a rate of application of p kg per hectare, compared with the untreated control (=0%). • Y=percentage herbicidal action on treatment with a compound of formula 2.1 to 2.51 at a rate of application of q kg per hectare, compared with the untreated control. • We=expected herbicidal action (percentage herbicidal action compared with the untreated control) following treatment with the compounds of formulae 1 and 2.1 to 2.51 at a rate of application of p+q kg of active ingredient per hectare.
as §2
Experiment Description—Post-emergence Test
The test plants are grown to the 2- to 3-leaf stage in plastics pots under greenhouse conditions. A standard soil is used as cultivation substrate. At the 2- to 3-leaf stage, the herbicide is applied to the test plants on its own and as a mixture. The application is carried out using an aqueous suspension of the test substances in 500 liters of water/ha. The rates of application depend on the optimum doses ascertained under field conditions and greenhouse conditions. The tests are evaluated after 33 days (% action, 100%=plant has died, 0%=no phytotoxic action).
Mixture A contains as active ingredients 915 g/liter of the compound of formula 2.2a and 45 g/liter of the compound of formula 3.1.
In the following Tables, evaluation is carried out after 21 days: […]

Series [3] relates to crop plants, e.g. maize and cereals. The series can be described thus: Safening action: phytotoxic action of the herbicides on crop plants with and without safener. The conditions noted are these: 50 g/ha herbicide alone, applied at 4-leaf stage, 4 weeks after application. On the procedure: Biological Example: Safening Action
The test plants are grown in plastics pots under greenhouse conditions to the 4-leaf stage. At that stage, the herbicides alone, and the mixtures of the herbicides with the test compounds that are to be tested as safeners, are applied to the test plants. The application is in the form of an aqueous suspension of the test compounds prepared from a 25% wettable powder (Example F3, b)) with 500 liters of water/ha. 4 weeks after application, the phytotoxic action of the herbicides on the crop plants, e.g. maize and cereals, is evaluated using a percentage scale. 100% denotes that the test plant has died, 0% denotes no phytotoxic action.
The same results are obtained when the mixtures are formulated in accordance with Examples F1, F2 and F4 to F8.

On to `Cc1nc(C(F)(F)F)ccc1C(=O)C1=C(O)C2CCC(C2)C1=O` (centres unmarked) [Compound 1.001, 4-hydroxy-3-(2-methyl-6-trifluoromethyl-pyridine-3-carbonyl)-bicyclo[3.2.1]oct-3-en-2-one], for which the herbicidal action is on record as 10% in series [1] (Amaranthus, 6 g/ha, after 23 days); 50% in series [1] (Chenopodium, 6 g/ha, after 23 days (Table B37)); 50% in series [1] (Chenopodium, 6 g/ha, after 23 days (Table B38)); 80% in series [1] (Chenopodium, 12.5 g/ha, after 14 days (Table B19)); 80% in series [1] (Chenopodium, 12.5 g/ha, after 14 days (Table B20)); 80% in series [1] (Chenopodium, 25 g/ha, after 14 days). For the same compound, the herbicidal action amounted to 0% in series [1] (Cyperus, 12.5 g/ha, after 14 days (Table B19)); 0% in series [1] (Cyperus, 12.5 g/ha, after 14 days (Table B20)); 0% in series [1] (Cyperus, 25 g/ha, after 14 days (Table B18)); 10% in series [1] (Cyperus, 25 g/ha, after 14 days (Table B22)); 70% in series [1] (Ipomoea, 25 g/ha, after 31 days (Table B25)); 70% in series [1] (Ipomoea, 25 g/ha, after 31 days (Table B26)). The herbicidal action in series [1] (Ipomoea, 25 g/ha, after 31 days (Table B27)) came to 70%; in series [1] (Polygonum, 25 g/ha, after 31 days (Table B23)), 0%; in series [1] (Polygonum, 25 g/ha, after 31 days (Table B24)), 0%; in series [1] (Polygonum, 50 g/ha, after 31 days), 0%; in series [1] (Solanum, 12.5 g/ha, after 14 days (Table B19)), 75%; in series [1] (Solanum, 12.5 g/ha, after 14 days (Table B20)) it was 75%. The herbicidal action was found to be 75% in series [1] (Solanum, 12.5 g/ha, after 14 days (Table B21)); 80% in series [1] (Solanum, 25 g/ha, after 14 days); 80% in series [1] (Xanthium, 25 g/ha, after 31 days (Table B25)); 80% in series [1] (Xanthium, 25 g/ha, after 31 days (Table B26)); 80% in series [1] (Xanthium, 25 g/ha, after 31 days (Table B27)); 0% in series [2] (Ipomoea, 6.25 g/ha, post-emergence, after 33 days). In addition, the herbicidal action worked out at 0% in series [2] (Ipomoea, 6.25 g/ha, post-emergence, after 33 days (Table B10)); 30% in series [2] (Ipomoea, 12.5 g/ha, post-emergence, after 21 days); 0% in series [2] (Ipomoea, 12.5 g/ha, post-emergence, after 33 days); 0% in series [2] (Ipomoea, 12.5 g/ha, post-emergence, after 33 days (Table B8)); 30% in series [2] (Ipomoea, 25 g/ha, post-emergence, after 21 days (Table B29)); 30% in series [2] (Ipomoea, 25 g/ha, post-emergence, after 21 days (Table B30)). For the same compound, the herbicidal action in series [2] (Ipomoea, 25 g/ha, post-emergence, after 21 days (Table B31)) was found to be 30%; in series [2] (Ipomoea, 25 g/ha, post-emergence, after 21 days (Table B33)), 30%; in series [2] (Polygonum, 6.25 g/ha, post-emergence, after 33 days) it was 0%; in series [2] (Polygonum, 6.25 g/ha, post-emergence, after 33 days (Table B10)) it was 0%; in series [2] (Polygonum, 12.5 g/ha, post-emergence, after 21 days (Table B32)), 30%; in series [2] (Polygonum, 12.5 g/ha, post-emergence, after 21 days (Table B34)) it was 30%. Moreover, the herbicidal action in series [2] (Polygonum, 12.5 g/ha, post-emergence, after 21 days (Table B35)) stood at 30%; in series [2] (Polygonum, 12.5 g/ha, post-emergence, after 33 days), 0%; in series [2] (Polygonum, 12.5 g/ha, post-emergence, after 33 days (Table B8)) it was 0%; in series [2] (Polygonum, 25 g/ha, post-emergence, after 21 days (Table B29)), 75%; in series [2] (Polygonum, 25 g/ha, post-emergence, after 21 days (Table B31)) it was 75%; in series [2] (Polygonum, 25 g/ha, post-emergence, after 21 days (Table B36)), 75%. Besides, the herbicidal action in series [2] (Xanthium, 6.25 g/ha, post-emergence, after 33 days) is 70%; in series [2] (Xanthium, 6.25 g/ha, post-emergence, after 33 days (Table B10)) it was 70%; in series [2] (Xanthium, 12.5 g/ha, post-emergence, after 33 days), 80%; in series [2] (Xanthium, 12.5 g/ha, post-emergence, after 33 days (Table B8)), 80%; in series [2] (Xanthium, 25 g/ha, post-emergence, after 21 days) it was 90%. The “herbicidal action (% action)” value is reported as 0% in series [1] (Chenopodium, Compd. 1.001 6.25 g/ha); 0% in series [1] (Chenopodium, Compd. 1.001 12.5 g/ha); 0% in series [1] (Chenopodium, Compd. 1.001 25 g/ha); 0% in series [1] (Ipomoea, Compd. 1.001 6.25 g/ha); 0% in series [1] (Ipomoea, Compd. 1.001 12.5 g/ha); 30% in series [1] (Ipomoea, Compd. 1.001 25 g/ha). For the same compound, the “herbicidal action (% action)” value in series [1] (Sida, Compd. 1.001 6.25 g/ha) is given as 0%; in series [1] (Sida, Compd. 1.001 12.5 g/ha) it was 0%; in series [1] (Sida, Compd. 1.001 25 g/ha), 0%; in series [1] (Sorghum, Compd. 1.001 6.25 g/ha), 0%; in series [1] (Sorghum, Compd. 1.001 12.5 g/ha) it was 0%; in series [1] (Sorghum, Compd. 1.001 25 g/ha) it was 30%. The phytotoxic action in series [3] (Abutilon) came to 100%; in series [3] (Maize) it was 50%; in series [3] (Setaria), 100%.

With `CCc1cccc(C)c1N(COCCl)C(C)COC` (centres unmarked) [Compound 2.2.b, reference compound], the herbicidal action in series [1] (Chenopodium, 300 g/ha, after 14 days) came out at 0%; in series [1] (Cyperus, 300 g/ha, after 14 days) it was 0%; in series [1] (Solanum, 300 g/ha, after 14 days), 40%.

For `CSc1nnc(C(C)(C)C)c(=O)n1N` [Compound 2.14, metribuzin, reference compound], the herbicidal action in series [1] (Ipomoea, 125 g/ha, after 31 days) stood at 0%; in series [1] (Polygonum, 125 g/ha, after 14 days (Table B13)) it was 30%; in series [1] (Polygonum, 250 g/ha, after 14 days) it was 50%; in series [1] (Xanthium, 125 g/ha, after 31 days) it was 20%.

Consider `O=C(O)CNCP(=O)(O)O` [Compound 2.16, glyphosate, reference compound], for which, in series [2] (in vivo), the herbicidal action is 20% and 10%.

`CCC(CC)Nc1c([N+](=O)[O-])cc(C)c(C)c1[N+](=O)[O-]` [Compound 2.18, pendimethalin, reference compound]: the herbicidal action in series [1] (Polygonum, 500 g/ha, after 14 days) was determined as 80%.

In the case of `COc1c(Cl)ccc(Cl)c1C(=O)O` [Compound 2.19, dicamba, reference compound], in series [2] (in vivo), the herbicidal action is reported as 60%.

For the compound `COC(=O)CSc1cc(/N=c2\sc(=O)n3n2CCCC3)c(F)cc1Cl` [Compound 2.25, fluthiacet-methyl, reference compound], the herbicidal action in series [2] (Ipomoea, 2 g/ha, post-emergence, after 21 days) was 0%; in series [2] (Polygonum, 2 g/ha, post-emergence, after 21 days), 0%.

For `CC(C)N(C(=O)COc1nnc(C(F)(F)F)s1)c1ccc(F)cc1` [Compound 2.30, fluthiamid, reference compound], the herbicidal action in series [1] (Cyperus, 100 g/ha, after 14 days (Table B22)) came out at 0%; in series [1] (Polygonum, 60 g/ha, after 14 days (Table B15)), 30%.

As to `O=C(O)CNCP(=O)(O)O` [Compound 2.33, sulfosate, reference compound], in series [2] (Polygonum, 360 g/ha, post-emergence, after 21 days (Table B32)), the herbicidal action amounted to 0%.
